Results taken from US9278940B2, “Cyclic amines as bromodomain inhibitors” (Zenith Epigenetics Corp., priority 2012, dated 2016).
Structures can show the parent of a compound that is named as a salt.

How the values were obtained:
hApoA-1 mRNA = test: Up-regulation of hApoA-1 mRNA transcription in Huh7 cells; format: cell-based, human; parameters: key: Active: Compounds with an EC170 value less than 30 μM are deemed to be active.; Not Active: Compounds with an EC170 value less than 30 μM are deemed to be active; settings: 48 hrs treatment, ApoA-I mRNA
Procedure: In this example, ApoA-I mRNA in tissue culture cells was quantitated to measure the transcriptional up-regulation of ApoA-I when treated with a compound of the present disclosure.
Huh7 cells ([…] per well) were plated in a 96-well plate using 100 μL DMEM per well, (Gibco DMEM supplemented with penicillin/streptomycin and 10% FBS), 24 h before the addition of the compound of interest. After 48 hrs treatment, the spent media was removed from the Huh-7 cells and placed on ice (for immediate use) or at −80° C. (for future use) with the “LDH cytotoxicity assay Kit II” from Abcam. The cells remaining in the plate were rinsed with 100 μL PBS.
Then 85 μL of cell lysis solution was added to each well and incubated for 5-10 minutes at room temperature, to allow for complete cell lysis and detachment. mRNA was then prepared using the “mRNA Catcher PLUS plate” from Life Technologies, according to the protocol supplied. After the last wash, as much wash buffer as possible was aspirated without allowing the wells to dry. Elution Buffer (E3, 80 μL) was then added to each well. mRNA was then eluted by incubating the mRNA Catcher PLUS plate with Elution Buffer for 5 minutes at 68° C., and then 1 minute at 4° C. Catcher plates with mRNA eluted were kept on ice for use or stored at −80° C.
The eluted mRNA isolated was then used in a one-step real-time PCR reaction, using components of the Ultra Sense Kit together with Life Technologies primer-probe mixes. Real-time PCR data was analyzed, using the Ct values, to determine the fold induction of each unknown sample, relative to the control (that is, relative to the control for each independent DMSO concentration).
Compounds with an EC170 value less than 30 μM are deemed to be active.

Brd4 bromodomain 1 = target: T1, Brd4 bromodomain 1 (Homo sapiens, UniProt O60885); test: Inhibition of tetra-acetylated histone H4 binding to BET bromodomain (TR-FRET); parameters: key: Active: Compounds with an IC50 value less than 30 μM were deemed to be active.; Not Active: Compounds with an IC50 value less than 30 μM were deemed to be active; settings: Brd4 bromodomain 1, tetra-acetylated histone H4 peptide
T1 construct: made in house; host or cells: E. coli BL21(DE3)
Procedure: Proteins were cloned and overexpressed with a N-terminal 6×His tag, then purified by nickel affinity followed by size exclusion chromatography. Briefly, E. coli BL21(DE3) cells were transformed with a recombinant expression vector encoding N-terminally Nickel affinity tagged bromodomains from Brd2, Brd3, Brd4. Cell cultures were incubated at 37° C. with shaking to the appropriate density and induced overnight with IPTG. The supernatant of lysed cells was loaded onto Ni-IDA column for purification. Eluted protein is pooled, concentrated and further purified by size exclusion chromatography. Fractions representing monomeric protein were pooled, concentrated, aliquoted, and frozen at −80° C. for use in subsequent experiments.
Binding of tetra-acetylated histone H4 and BET bromodomains was confirmed by a Time Resolved Fluorescence Resonance Energy Transfer (TR-FRET) method. N-terminally His-tagged bromodomains (200 nM) and biotinylated tetra-acetylated histone H4 peptide (25-50 nM, Millipore) were incubated in the presence of Europium Cryptate-labeled streptavidin (Cisbio Cat. #610SAKLB) and XL665-labeled monoclonal anti-His antibody (Cisbio Cat. #61HISXLB) in a white 96 well microtiter plate (Greiner). For inhibition assays, serially diluted test compound was added to these reactions in a 0.2% final concentration of DMSO. Final buffer concentrations were 30 mM HEPES pH 7.4, 30 mM NaCl, 0.3 mM CHAPS, 20 mM phosphate pH 7.0, 320 mM KF, 0.08% BSA). After 2 hours incubation at room temperature, the fluorescence by FRET was measured at 665 and 620 nm by a SynergyH4 plate reader (Biotek). The binding inhibitory activity was shown by a decrease in 665 nm fluorescence relative to 620 nm. IC50 values were determined from a dose response curve.

hIL-6 mRNA = test: Inhibition of hIL-6 mRNA transcription in LPS-stimulated U937 macrophages; format: cell-based, human; parameters: key: Active: Compounds with an IC50 value less than 30 μM are deemed to be active.; Not Active: Compounds with an IC50 value less than 30 μM are deemed to be active; settings: U937 cells differentiated with PMA, 1 h pretreatment, LPS 3 h
Procedure: In this example, hIL-6 mRNA in tissue culture cells was quantitated to measure the transcriptional inhibition of hIL-6 when treated with a compound of the present disclosure.
A human leukemic monocyte lymphoma cell line (U937) was plated (3.2×10^4 cells per well) in a 96-well plate in […] RPMI-1640 containing 10% FBS and penicillin/streptomycin, and differentiated into macrophages for 3 days in 60 ng/mL PMA ([…]) at 37° C. in 5% CO2 prior to the addition of the compound of interest. The cells were pretreated for 1 h with the test compound prior to stimulation with 1 ug/mL lipopolysaccharide from Escherichia coli. The cells were incubated at 37-C for 3 h before the cells were harvested. At time of harvest, the spent media was removed from the cells and the cells were rinsed in 200 μL PBS. Cell lysis solution (70 μL) was added the cells in each well and incubated for 5-10 min at room temperature, to allow for complete cell lysis and detachment. mRNA was then prepared using the “mRNA Catcher PLUS plate” (Invitrogen), according to the protocol supplied. After the last wash, as much wash buffer as possible was aspirated without allowing the wells to dry. Elution buffer (E3, 70 μL) was then added to each well. mRNA was then eluted by incubating the mRNA Catcher PLUS plate with Elution Buffer for 5 min at 68° C. and then immediately placing the plate on ice.
The eluted mRNA isolated was then used in a one-step quantitative real-time PCR reaction, using components of the Ultra Sense Kit together with Applied Biosystems primer-probe mixes. Real-time PCR data was analyzed, normalizing the Ct values for hIL-6 to an internal control, prior to determining the fold induction of each unknown sample, relative to the control.

c-myc = test: Inhibition of c-myc expression (mRNA, real-time PCR) in MV4-11 cells; format: cell-based; parameters: key: Active: Compounds with an IC50 value less than 30 μM were deemed to be active.; Not Active: Compounds with an IC50 value less than 30 μM were deemed to be active; settings: Human AML MV4-11 cells, 3 hours
Procedure: MV4-11 cells (2.5×10^4 cells) were plated in 96 well U-bottom plates with test compound or DMSO (0.1%), and incubated for 3 hours at 37° C. Cells were then harvested by centrifugation, lysed, and mRNA was isolated using the mRNA catcher plus kit (Invitrogen). Reverse transcription of the mRNA and duplex amplification of the c-myc and cyclophilin cDNAs was performed using the RNA Ultrasense kit (Invitrogen) and a ViiA7 real-time PCR machine (Applied Biosystems). IC50 values were determined from a dose response curve.

Human AML MV-4-11 cells = test: Inhibition of cell proliferation in MV4-11 cells; format: cell-based; parameters: key: Active: Compounds with an IC50 value less than 30 μM are deemed to be active.; Not Active: Compounds with an IC50 value less than 30 μM are deemed to be active; settings: 72 hours
Procedure: MV4-11 cells: 96-well plates were seeded with 5×10^4 cells per well of exponentially growing human AML MV-4-11 (CRL-9591) cells and immediately treated with two-fold dilutions of test compounds, ranging from 30 μM to 0.2 μM. Triplicate wells were used for each concentration, as well as a media only and three DMSO control wells. The cells and compounds were incubated at 37° C., 5% CO2 for 72 hours before adding 20 μL of the CellTiter Aqueous One Solution (Promega) to each well and incubating at 37° C., 5% CO2 for an additional 3-4 hours. The absorbance was taken at 490 nm in a spectrophotometer and the percentage of proliferation relative to DMSO-treated cells was calculated after correction from the blank well. IC50 were calculated using the GraphPad Prism software.

| Compound | ApoA-1 activity (EC170 < 30 μM) (hApoA-1 mRNA) | FRET activity (IC50 < 30 μM) (Brd4 bromodomain 1) | IL-6 activity (IC50 < 30 μM) (hIL-6 mRNA) | c-myc activity (IC50 < 30 μM) (c-myc) | cell proliferation activity (IC50 < 30 μM) (Human AML MV-4-11 cells) |
| --- | --- | --- | --- | --- | --- |
| COc1cc(OC)c2c(=O)[nH]c(-c3cccc(N4CCN(C(C)C)CC4=O)n3)nc2c1 [Example 28, 2-(6-(4-Isopropyl-2-oxopiperazin-1-yl)pyridin-2-yl)-5,7-dimethoxyquinazolin-4(3H)-one Hydrochloride] | Not Active | Not Active | – | – | – |
| COc1cc(OCc2ccccc2)cc2nc(-c3cccc(N4CCN(C(C)C)CC4)n3)[nH]c(=O)c12 [Example 22, 7-(Benzyloxy)-2-(6-(4-isopropylpiperazin-1-yl)pyridin-2-yl)-5-methoxyquinazolin-4(3H)-one Hydrochloride] | – | Active | Active | Active | Active |
| COc1cc(OC)c2c(=O)[nH]c(-c3cccc(N4CCN(C)C(=O)C4)n3)nc2c1 [Example 30, 5,7-Dimethoxy-2-(6-(4-methyl-3-oxopiperazin-1-yl)pyridin-2-yl)quinazolin-4(3H)-one] | – | Not Active | Active | Not Active | Not Active |
| COc1ccc(OCc2ccccc2)c2nc(-c3cccc(N4CCN(C(C)C)CC4)c3)[nH]c(=O)c12 [Example 26, 8-(Benzyloxy)-2-(3-(4-isopropylpiperazin-1-yl)phenyl)-5-methoxyquinazolin-4(3H)-one] | – | Active | Not Active | Not Active | Not Active |
| COc1cc(OC)c2c(=O)[nH]c(-c3cc(OC(F)(F)F)cc(N4CCN(C(C)C)CC4)c3)nc2c1 [Example 20, 2-(3-(4-Isopropylpiperazin-1-yl)-5-(trifluoromethoxy)phenyl)-5,7-dimethoxyquinazolin-4(3H)-one] | – | Active | Active | Not Active | Not Active |
| COc1cc(OC)c2c(=O)[nH]c(-c3cccc(N4CCN(C(=O)NC(C)C)CC4)n3)nc2c1 [Example 27, 4-(6-(5,7-Dimethoxy-4-oxo-3,4-dihydroquinazolin-2-yl)pyridin-2-yl)-N-isopropylpiperazine-1-carboxamide Hydrochloride] | – | Active | Active | Active | Active |
| COc1cc(N2CCN(C(C)C)CC2)cc2nc(-c3cccc(N4CCN(C(C)C)CC4)n3)[nH]c(=O)c12 [Example 23, 7-(4-Isopropylpiperazin-1-yl)-2-(6-(4-isopropylpiperazin-1-yl)pyridin-2-yl)-5-methoxyquinazolin-4(3H)-one Hydrochloride] | – | Active | Not Active | Active | Active |
| COc1cc(OC)c2c(=O)[nH]c(-c3cccc(N4CCOCC4)n3)nc2c1 [Example 16, 5,7-Dimethoxy-2-(6-morpholinopyridin-2-yl)quinazolin-4(3H)-one Hydrochloride] | – | Active | Active | Not Active | Not Active |
| COc1cc(-c2ccccc2)cc2nc(-c3cccc(N4CCN(C(C)C)CC4)n3)[nH]c(=O)c12 [Example 25, 2-(6-(4-Isopropylpiperazin-1-yl)pyridin-2-yl)-5-methoxy-7-phenylquinazolin-4(3H)-one] | – | Active | Not Active | – | – |
| COc1cc(F)cc2nc(-c3cccc(N4CCN(C(C)C)CC4)n3)[nH]c(=O)c12 [Example 21, 7-Fluoro-2-(6-(4-isopropylpiperazin-1-yl)pyridin-2-yl)-5-methoxyquinazolin-4(3H)-one Hydrochloride] | – | Active | Active | Active | Active |
| COc1cc(OC)c2c(=O)[nH]c(-c3cccc(N4CCN(S(C)(=O)=O)CC4)n3)nc2c1 [Example 18, 5,7-Dimethoxy-2-(6-(4-(methylsulfonyl)piperazin-1-yl)pyridin-2-yl)quinazolin-4(3H)-one Hydrochloride] | – | Not Active | Not Active | – | – |
